Read-outs that look alike come from different tables or passages of the source.
Experiments:
BRD2-BD1 [1] = target: T1, BRD2-BD1 (Homo sapiens (Human), UniProt P25440); assay: competitive TR-FRET assay, BET-BD with acetylated peptide ligand; type: binding; conditions: read-out: EC50 (μM) BRD2(1)
Protocol: (§1) Inhibitor potency was determined using a competitive TR-FRET assay as detailed herein, measuring interaction of the respective BET-BD with an acetylated peptide ligand (Table 2).
Target sequence in this assay (P25440 74-180): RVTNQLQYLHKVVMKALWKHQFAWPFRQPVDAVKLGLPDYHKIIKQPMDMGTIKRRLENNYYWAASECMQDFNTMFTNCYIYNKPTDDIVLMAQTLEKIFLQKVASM

BRD2-BD2 [2] = target: T2, BRD2-BD2 (Homo sapiens (Human), UniProt P25440); assay: as above; type: binding; conditions: for EC50: read-out: EC50 (μM) BRD2(2)
Protocol: as §1
Target sequence in this assay (P25440 344-453): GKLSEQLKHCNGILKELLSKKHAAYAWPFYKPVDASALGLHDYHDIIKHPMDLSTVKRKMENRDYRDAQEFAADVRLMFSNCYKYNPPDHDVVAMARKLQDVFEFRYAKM

BRD3-BD1 = BRD3-BD1 (Homo sapiens (Human), UniProt Q15059); assay: as above; type: binding
Protocol: as §1

BRD4-BD1 = BRD4-BD1 (Homo sapiens (Human), UniProt O60885); assay: as above; type: binding; conditions: Table 4; read-out: EC50 (μM) BRD4(1)
Protocol: as §1

BRD4-BD2 = BRD4-BD2 (Homo sapiens (Human), UniProt O60885); assay: as above; type: binding
Protocol: as §1

BRDT = BRDT (Homo sapiens, UniProt Q58F21); assay: as above; type: binding
Protocol: as §1

BRD2-BD1 [3] = target: T1, BRD2-BD1; assay: isothermal titration calorimetry analysis of binding; conditions: ITC, BRD2(1); read-out: KD (ITC)
Protocol: (§2) b. Isothermal Titration Calorimetry Analysis of Binding to Brd2-BD1 and Brd2-BD2
(§3) Binding of compounds to BRD2 was monitored using an ITC200 (Microcal, Piscataway, N.J.). Either Brd2.1 (74-194) or Brd2.2 (348-455) was dialyzed overnight into a solution containing 50 mM HEPES, pH 7.0 and 150 mM NaCl at 15° C. Enzyme concentrations were determined after dialysis by absorbance at 280 nm using a molar extinction coefficient (ε280) of 25,565 M^−1 cm^−1 (2.1) or 16,055 M^−1 cm^−1 (2.2). Enzyme was diluted in dialysis buffer and 39.6 μL was loaded into the syringe. Compounds were dissolved in the same dialysis buffer and loaded in the cell to a volume of 204 μL. Injections were carried out by serial injections of enzyme; first, 1 injection of 1 μL, followed by 19 incremental injections of 2 μL, at 120 second intervals. Data from the first injection was excluded, due to pre-equilibration mixing between the contents of cell and syringe at the syringe tip. Peak areas were integrated, normalized, and then fitted by non-linear regression using the independent sites model in Origin™ (version 2.3.6, Microcal, Piscataway, N.J.).
Target sequence in this assay (P25440 74-194): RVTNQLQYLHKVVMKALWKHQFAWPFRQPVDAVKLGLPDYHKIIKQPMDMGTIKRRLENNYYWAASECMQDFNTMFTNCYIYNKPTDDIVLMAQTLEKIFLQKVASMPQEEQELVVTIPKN

BRD2-BD2 [4] = target: T2, BRD2-BD2; assay: as above; conditions: ITC, BRD2(2); read-out: KD (ITC)
Protocol: as §2, §3
Target sequence in this assay (P25440 348-455): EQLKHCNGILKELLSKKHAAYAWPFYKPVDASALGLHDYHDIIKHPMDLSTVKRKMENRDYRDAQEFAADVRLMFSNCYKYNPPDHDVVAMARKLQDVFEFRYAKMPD

BRD2-BD1 [5] = target: T1, BRD2-BD1; assay: surface plasmon resonance analysis of binding; conditions: SPR, BRD2(1) (printed MRD2(1))
Protocol: (§4) a. Surface Plasmon Resonance (Biacore) Analysis of Binding to Brd2-BD1 and Brd2-BD2
(§5) SPR experiments were conducted at 15° C. using a SensiQ Pioneer optical biosensor (SensiQ Technologies). Poly-His tagged BRD2 constructs were immobilized on polycarboxylate-coated gold chips preimmobilized with nitrilotriacetic acid (His-Cap chips; SensiQ Technologies) by capture-coupling, a hybrid method of capture and amine coupling chemistry (Ref. A). The His-Cap chip was preconditioned and charged with Ni^2+ in equilibration buffer (10 mM HEPES pH 7.4, 150 mM NaCl, 50 μM EDTA, 0.005% Tween20) at a flow rate of 10 μL/min. The chip was washed with three 60 s injections of regeneration buffer (10 mM HEPES pH 8.3, 150 mM NaCl, 350 mM EDTA, 0.05% Tween20) and one 60 s injection of equilibration buffer and was charged with a 60 s injection of 500 mM NiCl2 in equilibration buffer, which added ˜55 RU of Ni^2+ per channel. […]
(§6) A series of buffer-only (blank) injections was included throughout the experiment to account for instrumental noise. The data were processed, double-referenced, solvent corrected and analyzed using the software package Qdat (version 2.5.3.5, SensiQ Technologies) (Ref B). The kinetic rate constants were determined by globally fitting the data to a 1:1 interaction model. Equilibrium dissociation constants (KD) were calculated as the quotient kd/ka.
Target sequence in this assay (P25440 74-180): as the sequence (P25440 74-180) above

BRD2-BD2 [6] = target: T2, BRD2-BD2; assay: surface plasmon resonance analysis of binding; conditions: SPR, BRD2(2)
Protocol: as §4, §5, §6
Target sequence in this assay (P25440 344-453): as the sequence (P25440 344-453) above

Loucy = assay: anti-proliferative activity; type: cell-based; conditions: Table 5
Protocol: (§7) After 7 days of treatment, an equal volume of CellTiter-Glo reagent (G7572, Promega) was added and the luminescence signal was measured using an automated Envision plate reader (Perkin-Elmer). Luminescence data were normalized by log10 transformation prior to calculating the percent inhibition using the following equation:
(§8) 100*(negative control mean −compound value)/(negative control mean −positive control mean).

MV-4-11 = assay: anti-proliferative activity; type: cell-based; conditions: Homo sapiens, MV4-11; Table 7
Protocol: as §7, §8

NALM-16 = assay: anti-proliferative activity; type: cell-based; conditions: NALM16; Table 5
Protocol: as §7, §8

SEM cells = assay: anti-proliferative activity; type: cell-based; conditions: Table 5
Protocol: as §7, §8

[7] = tested on: neural crest tumor cell lines; assay: activity versus neural crest tumor cell lines; type: cell-based; conditions: several neural crest tumor cell lines; read-out: IC50 ranges

Chain of BRD3-BD1 (Q15059 34-140): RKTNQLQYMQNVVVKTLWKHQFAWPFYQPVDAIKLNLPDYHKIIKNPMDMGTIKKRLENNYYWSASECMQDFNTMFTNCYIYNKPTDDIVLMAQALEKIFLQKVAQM

EC50 (BRD2-BD1 [1]; Table 4): 0.43 µM
EC50 (BRD2-BD1 [1]; Table 6): 1.56 µM
EC50 (BRD2-BD1 [1]; Table 8): 1.56 µM
[2(1)/2(2)] (BRD2-BD2 [2]; Table 4, ratio of EC50): 19.5
EC50 (BRD2-BD2 [2]; Table 4): 0.022 µM
[2(1)/2(2)] (BRD2-BD2 [2]; Table 6, ratio of EC50): 14.2
EC50 (BRD2-BD2 [2]; Table 6): 0.11 µM
EC50 (BRD2-BD2 [2]; Table 8): 0.11 µM
EC50 (BRD3-BD1; Table 4, read-out: BRD3(1)): 1.1 µM
EC50 (BRD3-BD1; Table 6, read-out: EC50 (μM) BRD3(1)): 1.1 µM
EC50 (BRD3-BD1; Table 8, read-out: BRD3(1)): 1.1 µM
EC50 (BRD4-BD1): 0.43 µM
4(1)/4(2) (BRD4-BD2; Table 4, ratio of EC50): 20.5
EC50 (BRD4-BD2; Table 4, read-out: EC50 (μM) BRD4(2)): 0.021 µM
EC50 (BRDT; Table 4, read-out: BRDT EC50): 4000 nM
EC50 (BRDT; Table 6, head names no target, BRDT by comparison with Table 4, read-out: EC50): 4000 nM
EC50 (BRDT; Table 8, head names no target, BRDT by comparison with Table 4, read-out: EC50): 4000 nM
Kd (BRD2-BD1 [3]): 25 nM
Kd (BRD2-BD2 [4]): < 1 nM
Kd (BRD2-BD1 [5]): 132 nM
Kd (BRD2-BD2 [6]): 13 nM
EC50 (MV-4-11): 0.016 µM
IC50 [7]: 50 to 200 nM
Structure (SMILES): COC(=O)c1ccc(N[C@@H]2C[C@H](C)N(C(C)=O)c3ccc(-c4cccc(NC(C)=O)c4)cc32)cc1 [compound 4]
EC50 (Loucy): 0.39 µM
EC50 (NALM-16): 0.35 µM
EC50 (SEM cells): 0.02 µM

— patent publication US11028051B2, “Tetrahydroquinoline-based bromodomain inhibitors” (St. Jude Children's Research Hospital, priority 2016, dated 2021)
